From ChEMBL document CHEMBL3872201, “Synthesis and antiproliferative activity of a natural like glycoconjugate polycyclic compound” (2016)

Legend:
Format in all cases: functional
[1] = Antiproliferative activity against human SN12C cells after 48 hrs by sulforhodamine B assay
[2] = Antiproliferative activity against human RXF393 cells after 48 hrs by sulforhodamine B assay; details: RXF 393, 48 h
[3] = Antiproliferative activity against human ACHN cells after 48 hrs by sulforhodamine B assay
[4] = Cell cycle arrest in human MDA-MB-231 cells assessed as accumulation at G0/G1 phase at 10 uM after 48 hrs by propidium iodide staining based flow cytometric analysis (reference value: 67%)
[5] = Antiproliferative activity against human SK-MEL-5 cells after 48 hrs by sulforhodamine B assay; details: SK-MEL-5, 48 h
[6] = Antiproliferative activity against human HOP62 cells after 48 hrs by sulforhodamine B assay; details: HOP-62, 48 h
[7] = Antiproliferative activity against human HCT116 cells after 48 hrs by sulforhodamine B assay; details: HCT-116, 48 h
[8] = Cell cycle arrest in human MDA-MB-231 cells assessed as accumulation at G2/M phase at 10 uM after 48 hrs by propidium iodide staining based flow cytometric analysis (reference value: 19.5%)
[9] = Antiproliferative activity against human OVCAR8 cells after 48 hrs by sulforhodamine B assay; details: OVCAR-8, 48 h
[10] = Antiproliferative activity against human M14 cells after 48 hrs by sulforhodamine B assay; details: M14, 48 h
MDA-MB-231 [11] = assay: Effect on cell cycle regulatory protein in human MDA-MB-231 cells assessed as cdc2 level at 5 uM after 24 hrs by Western blot analysis relative to control
[12] = Cytotoxicity against human MDA-MB-231 cells assessed as inhibition of cell viability at 5 uM after 48 hrs by MTT assay relative to control; details: MDA-MB-231, 48 h
[13] = Antiproliferative activity against human PC3 cells after 48 hrs by sulforhodamine B assay; details: PC-3, 48 h
[14] = Antiproliferative activity against human SW620 cells after 48 hrs by sulforhodamine B assay; details: SW-620, 48 h
[15] = Cell cycle arrest in human MDA-MB-231 cells assessed as accumulation at G0/G1 phase at 10 uM after 24 hrs by propidium iodide staining based flow cytometric analysis (reference value: 66.5%)
[16] = Antiproliferative activity against human DU145 cells after 48 hrs by sulforhodamine B assay; details: DU-145, 48 h
[17] = Antiproliferative activity against human HOP92 cells after 48 hrs by sulforhodamine B assay; details: HOP-92, 48 h
[18] = Antiproliferative activity against human A549/ATCC cells after 48 hrs by sulforhodamine B assay; details: A549, 48 h
[19] = Cell cycle arrest in human MDA-MB-231 cells assessed as accumulation at subG0/G1 phase at 5 uM after 72 hrs by propidium iodide staining based flow cytometric analysis (reference value: 6.3%)
[20] = Antiproliferative activity against human SKOV3 cells after 48 hrs by sulforhodamine B assay; details: SK-OV-3, 48 h
[21] = Cell cycle arrest in human MDA-MB-231 cells assessed as accumulation at G0/G1 phase at 10 uM after 72 hrs by propidium iodide staining based flow cytometric analysis (reference value: 69.3%)
[22] = Cell cycle arrest in human MDA-MB-231 cells assessed as accumulation at G2/M phase at 10 uM after 24 hrs by propidium iodide staining based flow cytometric analysis (reference value: 20.4%)
MDA-MB-231 [23] = assay: Effect on cell cycle regulatory protein in human MDA-MB-231 cells assessed as cyclin B1 level at 10 uM after 24 hrs by Western blot analysis relative to control
[24] = Antiproliferative activity against human MDA-MB-231 cells after 48 hrs by sulforhodamine B assay; details: MDA-MB-231, 48 h
[25] = Antiproliferative activity against human KM12 cells after 48 hrs by sulforhodamine B assay; details: KM12, 48 h
[26] = Antiproliferative activity against human T47D cells after 48 hrs by sulforhodamine B assay
[27] = read-out: LC50 (the source's name)

Structure (SMILES): C=C1c2c(C)nn(-c3ccc(C#CCO[C@@H]4O[C@H](CO)[C@@H](O)[C@H](O)[C@H]4O)cc3)c2N(C)C23CC1C1(C)c4c(C)nn(-c5ccc(C#CCO[C@@H]6O[C@H](CO)[C@@H](O)[C@H](O)[C@H]6O)cc5)c4N(C)C(C)(CC12)C3 (some centres undefined)
- GI50 [1]: 1.38 µM
- TGI [1]: 3.72 µM
- CC50 [1, 27]: 9.99 µM
- GI50 [2]: 1.62 µM
- TGI [2]: 3.52 µM
- CC50 [2, 27]: 7.63 µM
- GI50 [3]: 2.42 µM
- TGI [3]: 10.6 µM
- CC50 [3, 27]: 32.5 µM
- Activity [4]: 61.3%
- GI50 [5]: 1.38 µM
- TGI [5]: 2.71 µM
- CC50 [5, 27]: 5.31 µM
- GI50 [6]: 1.49 µM
- TGI [6]: 2.88 µM
- CC50 [6, 27]: 5.57 µM
- GI50 [7]: 1.27 µM
- TGI [7]: 2.97 µM
- Activity [8]: 31.1%
- GI50 [9]: 1 µM
- TGI [9]: 3.84 µM
- CC50 [9, 27]: 55.1 µM
- GI50 [10]: 1.67 µM
- TGI [10]: 3.44 µM
- CC50 [10, 27]: 7.06 µM
- fold change (FC) (MDA-MB-231 [11]): 0.9
- inhibition at 5 µM [12]: 68%
- GI50 [13]: 0.7 µM
- TGI [13]: 2.56 µM
- CC50 [13, 27]: 7.79 µM
- GI50 [14]: 1.72 µM
- TGI [14]: 3.77 µM
- CC50 [14, 27]: 8.29 µM
- Activity [15]: 52%
- GI50 [16]: 1.97 µM
- TGI [16]: 5.16 µM
- CC50 [16, 27]: 17.3 µM
- GI50 [17]: 0.43 µM
- TGI [17]: 2.52 µM
- CC50 [17, 27]: 8.63 µM
- GI50 [18]: 1.68 µM
- TGI [18]: 4.09 µM
- CC50 [18, 27]: 9.98 µM
- Activity [19]: 4%
- GI50 [20]: 1.72 µM
- TGI [20]: 3.11 µM
- CC50 [20, 27]: 5.61 µM
- Activity [21]: 61.8%
- Activity [22]: 36.6%
- fold change (FC) (MDA-MB-231 [23]): 0.7
- GI50 [24]: 1.5 µM
- TGI [24]: 3.06 µM
- CC50 [24, 27]: 6.23 µM
- GI50 [25]: 1.44 µM
- TGI [25]: 2.9 µM
- CC50 [25, 27]: 5.84 µM
- GI50 [26]: 0.68 µM
- TGI [26]: 6.8 µM
- CC50 [26, 27]: 100 µM
